Assay results as given in US9932300B2, “N,N′-diarylurea compounds and N,N′-diarylthiourea compounds as inhibitors of translation initiation” (President and Fellows of Harvard College, priority 2009, dated 2018).

Tested on: eIF2-GTP-Met-tRNAi ternary complex
Test: Ternary complex assay (dual luciferase, firefly/renilla ratio) in stable KLN-tTA/pBISA-DL(ATF-4) cells; HTS and hit confirmation
Assay type: cell-based, mouse
Design: Activity 10 uM / Activity 2.5 uM / Activity 5 uM: unit not given here
Conditions: confirmed hits of the screen (Table 5); for Activity 2.5 uM: compound at 2.5 uM; for Activity 10 uM: compound at 10 uM; for Activity 5 uM: compound at 5 uM

In the case of `Cc1ccc(S(=O)(=O)C(c2ccccc2)C(Br)C(=O)c2ccccc2)cc1` (stereo not drawn) [Compound 280894], the “Activity 2.5 uM” value is reported as 2.06.

`O=C1c2ccccc2C(=O)c2c1oc1c2ccc2ccccc21` [Compound 281986] was tested, and the “Activity 2.5 uM” value was 3.11 and the “Activity 10 uM” value was 3.37.

`Br[CH](Br)[Hg][c]1ccccc1` [Compound 286678] was tested, and the “Activity 2.5 uM” value was 1.72.

`CCCCC(OC(=O)c1ccccc1)c1cc(OC(=O)c2ccccc2)c2c(c1OC(=O)c1ccccc1)CC(C)=C(C)C2` (stereo not drawn) [Compound 287407] was tested, and the “Activity 2.5 uM” value was 3.93 and the “Activity 10 uM” value was 36.2.

In the case of `CC1=C(C)CC2C(=O)C(C(O)CC(C)C)=CC(=O)C2C1` (stereo not drawn) [Compound 287413], the “Activity 2.5 uM” value is reported as 0.68 and the “Activity 10 uM” value is reported as 17.06.

`CCN1/C(=C/C=C2\CCC(/C=C/c3sc4ccc(Cl)cc4[n+]3CC)=C2N(c2ccccc2)c2ccccc2)Sc2ccc(Cl)cc21.[O-][Cl+3]([O-])([O-])[O-]` [Compound 290436] was tested, and the “Activity 5 uM” value was 3.8 and the “Activity 10 uM” value was 20.4.

In the case of `CCC[CH2][Sn]1([CH2]CCC)[O]C2C(CO)OC(n3c(Br)c(C#N)c4c(N)ncnc43)C2[O]1` (stereo not drawn) [Compound 291104], the “Activity 2.5 uM” value is reported as 1.4 and the “Activity 10 uM” value is reported as 3.83.

With `c1ccc2c(c1)cnc1c3ccccc3nn21` [Compound 292587] the “Activity 5 uM” value was 2.577 and the “Activity 10 uM” value was 3.294.

For `CN(C)c1cc(=O)c2c(ccc3ccccc32)o1` [Compound 292795], the “Activity 5 uM” value was 3.69 and the “Activity 10 uM” value was 4.66.

For `CCN(C)c1cc(=O)c2c(ccc3ccccc32)o1` [Compound 292796], the “Activity 5 uM” value was 4.759 and the “Activity 10 uM” value was 5.6.

`S=C(N=Nc1ccccc1)N[N-]c1ccccc1.S=C(N=Nc1ccccc1)N[N-]c1ccccc1.[Zn+2]` [Compound 293939] was tested, and the “Activity 2.5 uM” value was 1.54 and the “Activity 10 uM” value was 7.78.

With `CCOC(=C\C=C\C1=[N+](C)c2ccccc2C1(C)C)/C=C/C=C1/N(C)c2ccccc2C1(C)C.F[B-](F)(F)F` [Compound 295477] the “Activity 2.5 uM” value was 6.24 and the “Activity 10 uM” value was 9.07.

`CCCCCCCCCCCCCCCC[N+](C)(C)CCOC(C)=O.O=S(=O)([O-])C(F)(F)F` [Compound 297153] was tested, and the “Activity 2.5 uM” value was 0.95 and the “Activity 10 uM” value was 4.39.

In the case of `CCCCCCCCCCCCCCCC[N+](C)(C)CCN=[N+]=[N-].O=S(=O)([O-])C(F)(F)F` [Compound 297154], the “Activity 2.5 uM” value is reported as 1.24 and the “Activity 10 uM” value is reported as 5.62.

In the case of `Br.CCCCCCCCCCCCCCCC[N+](C)(C)CCN.[Br-]` [Compound 297156], the “Activity 2.5 uM” value is reported as 1.08 and the “Activity 10 uM” value is reported as 5.15.

For `CCCCC(Oc1cc(C(C)(C)C)c(O)c(C(C)(C)C)c1)C(=O)O` (stereo not drawn) [Compound 297621], the “Activity 2.5 uM” value was 18.95.

`O=C(NC(=O)c1c(F)cccc1F)Nc1nc2ccccc2s1` [Compound 298153] was tested, and the “Activity 2.5 uM” value was 3.67 and the “Activity 10 uM” value was 3.43.

For `c1ccc(-c2ccc(-c3csnn3)cc2)cc1` [Compound 298243], the “Activity 5 uM” value was 2.747 and the “Activity 10 uM” value was 3.327.

With `CN(C)c1ccc(N=Nc2ccc3c4c(cccc24)-c2ccccc2-3)cc1` [Compound 299107] the “Activity 2.5 uM” value was 8.13 and the “Activity 10 uM” value was 279.99.

In the case of `[Pd].[Pd].[S-]CC[S-].[S-]CC[S-].c1ccc([PH+](c2ccccc2)c2ccccc2)cc1.c1ccc([PH+](c2ccccc2)c2ccccc2)cc1` [Compound 300554], the “Activity 2.5 uM” value is reported as 0.48 and the “Activity 10 uM” value is reported as 8.96.

For `CC(C)[S-].CC(C)[S-].[Pt+2].c1ccc([PH+](c2ccccc2)c2ccccc2)cc1.c1ccc([PH+](c2ccccc2)c2ccccc2)cc1` [Compound 300559], the “Activity 2.5 uM” value was 0.71 and the “Activity 10 uM” value was 4.71.

With `Cc1ccc(NC(=O)c2cc3ccccc3cc2O)c(C)c1.Cc1ccc(NC(=O)c2cc3ccccc3cc2O)c(C)c1.[Mn+2]` [Compound 306697] the “Activity 2.5 uM” value was 1.77 and the “Activity 10 uM” value was 19.5.

For `FC(F)(F)c1cc(NC2=NCCN=C(Nc3cc(C(F)(F)F)cc(C(F)(F)F)c3)SS2)cc(C(F)(F)F)c1` [Compound 309898], the “Activity 2.5 uM” value was 1.07 and the “Activity 10 uM” value was 13.68.

For `C[N+]1=C(/C=C/Nc2cc3c4ccccc4ccc3c3ccccc23)C(C)(C)c2ccccc21.[Cl-]` [Compound 313162], the “Activity 2.5 uM” value was 1.07 and the “Activity 10 uM” value was 4.03.

`CN(C)Cc1[c-]c(CN(C)C)ccc1.[Br][Pt]` [Compound 315819] was tested, and the “Activity 2.5 uM” value was 2.12 and the “Activity 10 uM” value was 13.17.

In the case of `Clc1cc[c]([Sb]2([c]3ccc(Cl)cc3)([c]3ccc(Cl)cc3)[O]C(C(Cl)(Cl)Cl)[O]2)cc1` (stereo not drawn) [Compound 316746], the “Activity 2.5 uM” value is reported as 0.88 and the “Activity 10 uM” value is reported as 6.11.

For `[C-]#[O+].[C-]#[O+].[C-]#[O+].[CH3][Sn]([c]1ccccc1)[c]1ccccc1.[Co].c1ccc([PH+](c2ccccc2)c2ccccc2)cc1` [Compound 319697], the “Activity 2.5 uM” value was 3.1.

With `[C-]#[O+].[C-]#[O+].[C-]#[O+].[C-]#[O+].[C-]#[O+].[CH3][Sn]([Cl])[c]1ccccc1.[Mn]` [Compound 319699] the “Activity 2.5 uM” value was 0.29 and the “Activity 10 uM” value was 3.62.

`S=c1nccc[nH]1.[Pd]` [Compound 321197] was tested, and the “Activity 5 uM” value was 5.014 and the “Activity 10 uM” value was 5.0845.

In the case of `S=c1nccc[nH]1.[Pt]` [Compound 321198], the “Activity 5 uM” value is reported as 8.313 and the “Activity 10 uM” value is reported as 9.062.

For `COc1ccc(CCN2C(=O)C(=O)N(c3ccc(Cl)c(Cl)c3)C2=O)cc1OC` [Compound 323938], the “Activity 2.5 uM” value was 0.99 and the “Activity 10 uM” value was 5.53.

`CCCCCC(CN(C)C)C(=O)CC(SCC)c1ccc(Cl)c(Cl)c1` (stereo not drawn) [Compound 326123] was tested, and the “Activity 2.5 uM” value was 0.47 and the “Activity 10 uM” value was 12.9.

In the case of `c1ccc(Nc2nnc(-c3ccc4c(c3)OCO4)o2)cc1` [Compound 326181], the “Activity 5 uM” value is reported as 5.584 and the “Activity 10 uM” value is reported as 7.027.

`CSC(=Nc1nc2ccc([N+](=O)[O-])cc2s1)SC` [Compound 327371] was tested, and the “Activity 5 uM” value was 13.29 and the “Activity 10 uM” value was 22.247.

`O=[N+]([O-])c1cccnc1S(=O)(=O)c1ccccn1` [Compound 327414] was tested, and the “Activity 5 uM” value was 3.793 and the “Activity 10 uM” value was 6.977.

For `CN(C)c1ccc(NC(=O)c2ccccc2O)cc1` [Compound 328479], the “Activity 5 uM” value was 7.502 and the “Activity 10 uM” value was 7.342.

`Cc1cccc(/C=N/Nc2ccc3ccccc3n2)n1` [Compound 332423] was tested, and the “Activity 5 uM” value was 4.287 and the “Activity 10 uM” value was 5.4265.

In the case of `Cc1cccc(/C=N/Nc2cc(C)c3ccccc3n2)n1` [Compound 332426], the “Activity 2.5 uM” value is reported as 2.37 and the “Activity 10 uM” value is reported as 3.15.
